pEC50: −log10 of the molar value.
These compounds were tested against human 5-HT2C receptor (Homo sapiens, UniProt P28335, I156V/I160V/N158S) (assay: cell-based).
human 5-HT2C receptor, sequence (P28335 33-458 I156V/N158S/I160V limits assumed): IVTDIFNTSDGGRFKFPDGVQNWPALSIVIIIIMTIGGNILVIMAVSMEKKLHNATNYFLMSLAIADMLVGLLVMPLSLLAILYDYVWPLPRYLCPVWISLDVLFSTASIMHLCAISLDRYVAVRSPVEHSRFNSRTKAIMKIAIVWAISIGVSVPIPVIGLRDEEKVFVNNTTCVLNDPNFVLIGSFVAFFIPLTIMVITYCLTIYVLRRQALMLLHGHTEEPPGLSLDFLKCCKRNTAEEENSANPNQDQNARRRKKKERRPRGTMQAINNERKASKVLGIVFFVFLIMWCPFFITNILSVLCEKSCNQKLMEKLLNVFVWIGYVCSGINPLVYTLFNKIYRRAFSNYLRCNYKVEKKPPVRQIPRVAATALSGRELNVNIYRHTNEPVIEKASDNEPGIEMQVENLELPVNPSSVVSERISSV

| Structure (SMILES) | pEC50 |
| --- | --- |
| O=C(C1CN(c2c3c(nc4c(Br)cnn24)CCNCC3)C1)N1CCC2(CCOC2)CC1 [Example 31.137] | 7.15 |
| Cc1cc(OCC2CN(c3c4c(nc5ccnn35)CCNCC4)C2)ccc1F [Example 15.4] | 7.60 |
| CCCCN1CCN(C(=O)C2CN(c3c4c(nc5ccnn35)CCNCC4)C2)CC1=O [Example 37.51] | 7.96 |
| CCC#CCNC(=O)C1CN(c2c3c(nc4ccnn24)CCNCC3)C1 [Example 37.52] | 7.21 |
| C#CCN1CCN(C(=O)C2CN(c3c4c(nc5ccnn35)CCNCC4)C2)CC1 [Example 37.39] | 8.15 |
| O=C(NC1(c2ccc(F)cc2)CC1)C1CN(c2c3c(nc4ccnn24)CCNCC3)C1 [Example 31.93] | 6.10 |
| O=C(C1CN(c2c3c(nc4ccnn24)CCNCC3)C1)N1CCC(c2ccccc2)(c2ccccc2)CC1 [Example 31.72] | 6.09 |
| c1ccc(Cn2c(C3CN(c4c5c(nc6ccnn46)CCNCC5)C3)nc3ccccc32)cc1 [Example 34.28] | 6.73 |
| CN1CCc2nc3ccnn3c(N3CC(C(=O)N[C@H]4CC[C@H](N(C)C)CC4)C3)c2CC1 [Example 36.16] | 6.55 |
| CC1(C)CCC(NC(=O)C2CN(c3c4c(nc5ccnn35)CCNCC4)C2)CC1 [Example 37.53] | 7.70 |
| O=C(C1CN(c2c3c(nc4ccnn24)CCNCC3)C1)N1CC[C@@H](F)C1 [Example 31.205] | 6.94 |
| CN1CCc2nc3ccnn3c(N3CC(C(=O)N4CCCN(C)CC4)C3)c2CC1 [Example 36.12] | 7.14 |
| O=C(C1CN(c2c3c(nc4ccnn24)CCNCC3)C1)N1CCC1 [Example 31.7] | 5.48 |
| OCC1CN(c2c3c(nc4ccnn24)CCNCC3)C1 [Example 1.5] | 6.71 |
| CN(Cc1cccc2ccccc12)C(=O)C1CN(c2c3c(nc4ccnn24)CCNCC3)C1 [Example 31.76] | 7.09 |
| CN(C(=O)C1CN(c2c3c(nc4ccnn24)CCNCC3)C1)c1ccccc1 [Example 31.5] | 6.13 |

| Structure (SMILES) | pEC50 |
| --- | --- |
| c1ccc(CCc2cnn3c(N4CCC4)c4c(nc23)CCNCC4)nc1 [Example 6, 10-Azetidin-1-yl-3-(2-pyridin-2-yl-ethyl)-6,7,8,9-tetrahydro-5H-1,4,7,10a-tetraaza-cyclohepta[f]indene] | 6.81 |
| COc1ccccc1OCC1CN(c2c3c(nc4ccnn24)CCNCC3)C1 [Example 15.21] | 7.54 |
| Cc1ccc(C2CCN(C(=O)C3CN(c4c5c(nc6ccnn46)CCNCC5)C3)CC2)cc1 [Example 31.144] | 7.18 |
| O=C(C1CN(c2c3c(nc4ccnn24)CCNCC3)C1)N1CCOCC1 [Example 31.17] | 6.56 |
| CN(Cc1ccc(-c2ccccc2)cc1)C(=O)C1CN(c2c3c(nc4ccnn24)CCNCC3)C1 [Example 31.82] | 6.81 |
| CN(C)C(=O)[C@H]1CCN(c2c3c(nc4ccnn24)CCNCC3)C1 [Example 1.63] | 5.57 |
| CN(CCc1cccc(C(F)(F)F)c1)C(=O)C1CN(c2c3c(nc4ccnn24)CCNCC3)C1 [Example 31.89] | 6.88 |
| Cc1cnn2c(N3CC(C(=O)N4CCC(c5ccccc5F)CC4)C3)c3c(nc12)CCNCC3 [Example 31.243] | 7.09 |
| CC(c1ccccc1)n1c(C2CN(c3c4c(nc5ccnn35)CCNCC4)C2)nc2cc(Cl)ccc21 (stereo not shown) [Example 34.37] | 5.62 |
| Cc1cccc2c1N(C(=O)C1CN(c3c4c(nc5ccnn35)CCNCC4)C1)CC2 [Example 31.174] | 6.94 |
| O=C(C1CN(c2c3c(nc4ccnn24)CCNCC3)C1)N1CCC(C(F)(F)F)C1 (stereo not shown) [Example 31.95] | 7.39 |
| CC1(NC(=O)C2CN(c3c4c(nc5ccnn35)CCNCC4)C2)CCCC1 [Example 37.80] | 6.91 |
| O=C(C1CCCN(c2c3c(nc4ccnn24)CCNCC3)C1)N1CCC(C2CCCCC2)CC1 (stereo not shown) [Example 1.58] | 5.33 |
| O=C(C1CN(c2c3c(nc4ccnn24)CCNCC3)C1)N1CCC(c2ccc(C(F)(F)F)cc2)CC1 [Example 31.109] | 7.08 |
| COc1ccc(OCC2CN(c3c4c(nc5ccnn35)CCNCC4)C2)c(F)c1 [Example 15.9] | 8.15 |

Reference: patent US20120165304A1, “6,7,8,9-Tetrahydro-5H-1,4,7,10a-tetraaza-cyclohept[f]indene derivatives, pharmaceutical compositions containing these compounds, their use and processes for preparing them” (BOEHRINGER INGELHEIM INTERNATIONAL GMBH, priority 2008, published 2012)
